# Experimental data published in patent US20020055130A1, “Method and product for regulating apoptosis” (National Jewish Center for Immunology and Respiratory …, priority 1997, published 2002).
# Tests used:
# MEKK1 = MEKK1 immunoprecipitate in vitro kinase assay (MEK-1 phosphorylation), growth factor treated PC12 cells; format: cell-based; conditions: for MEKK1 activity: serum starved PC12 cells, EGF 30 ng/ml or NGF 100 ng/ml, 5 minutes
# Raf-B = Raf-B immunoprecipitate in vitro kinase assay, EGF treated PC12 cells; format: cell-based; conditions: EGF 30 ng/ml timecourse
# Description: (§1) Reactions were stopped by the addition of 2× SDS sample buffer (20 μl). The samples were boiled for 3 minutes and subjected to SDS-PAGE and autoradiography. Raf-B was immunoprecipitated from the same untreated and treated PC 12 cell lysates as above with an antiserum to a COOH-terminal peptide of Raf-B (Santa Cruz Biotechnology, Inc.) and assayed similarly. Raf-1 was immunoprecipitated with an antiserum to the 12 COOH-terminal amino acids of Raf-1 (Santa Cruz Biotechnology, Inc.).
# c-Raf-1 = assay: Raf-1 immunoprecipitate in vitro kinase assay, growth factor treated PC12 cells; format: cell-based; conditions: in comparison to MEKK1 or Raf-B
# Description: as §1
# L929 cells = assay: TNFα-mediated apoptosis of L929 cells (neutral red assay, propidium iodide staining); format: cell-based, murine; conditions: for effect on TNFα-mediated cell death / apoptosis / effect on the protective action of bFGF against TNFα-mediated cell death: L929 cells
# Description: Cell lines and culture. L929 cells (ATCC CCL1 were maintained in Dulbecco's modified Eagle's medium with 5% newborn claf serum and 5% bovine calf serum (BCS) supplemented with 100 ug/ml streptomycin and 100U/ml penicillin. The cells were grown in 10 cm dishes at 37° C. in 7.5% CO2. Cells were made quiescent where indicated by incubation in Dulbecco's modified Eagle's medium and 0.1% bovine serum albumin for 24 h. Recombinant murine TNFα and recombinant humanbFGF (147aa) were from R&D Systems, Minneapolis, Minn. Cells were pretreated where indicated with the MEK-1 inhibitor PD#098059 (Parke-Davis Pharmaceutical Corp. Ann Arbor, Mich.) for 1 h at 37° C. Cells were stimulated by incubation with the indicated cytokine or growth factor for various times at 37° C. […] Stimulation was stopped by rinsing the plates twice with ice cold phosphate buffered saline (PBS) and lysing the cells in the appropriate lysis buffer. Cells were scraped from the plates and nuclei were pelleted for 10 min at 14,000 RPM in a microcentrifuge.
# Neutral Red Assay Uptake of the dye neutral red was used as one measure of cell viability following cytokine or growth factor treatment (Finter, N. B. (1969) J. Gen Virol. 5:419-427). 1.5×10^4-2.5×10^5 L929 cells/well were plated in 12 well tissue culture dishes in 1.25 ml of media. Cells were treated for 15-20 hr with various concentrations of TNFα and/or bFGF. 2.5 μl of 1% neutral red was added to the wells and incubated for 2 hr at 37° C. PBS. The neutral red was extracted with 1.0 ml of 50% ethanol, 50 mM Na-citrate pH 4.2 and absorbency was measured at […].
# Propidium iodide staining Cells were plated on glass chamber slides (Nunc, Naperville, Ill.) at a concentration of 0.2-0.6×10^5 cells/ml. Ras expression was induced with 5 mM IPTG in Dulbecco's modified Eagle's medium with 0.1% BCS for 8-12 hr. Cells were exposed to TNFα (5 ng/ml) and/or bFGF (500 pg/ml) in Dulbecco's modified Eagle's medium with 0.1% BCS for 16 hr. The parental LACI expressing cell line (see below) was used as a control. Cells were washed twice in PBS, fixed in acetone:methanol (1:1) −20° C. for 5 min, air dried, washed twice in PBS, stained with 1 μg/ml propidium iodide (PI) in PBS for 20 min, washed in PBS, washed in H2O and mounted in 25% glycerol/PBS. PI fluorescence was observed using a Nikon inverted microscope equipped with epifluorescence and a […] filter. Images were analyzed using IP lab.
# JNK = JNK assay (solid state kinase assay with GST-Jun), L929 cells; format: cell-based, murine; conditions: for effect on JNK activity: bFGF 2.5 ng/ml, PD #098059 pretreatment; for effect on TNFα stimulation of JNK: co-stimulation or IPTG-induced Ras expression
# Description: JNK assay. JNK activity was measured using a solid state kinase assay in which glutathione S-transferase-c-Jun(1-79) (GST-JUN) cound to glutathione-Sepharose 4B beads was used to affinity pruify JNK and then JNK activity was measured in an in vitro kinase assay using the sepharose bound GST-Jun as a substrate (Hibi, M., et al. (1993) Genes & Development 7:2135-2148). Stimulated or unstimulated cells were lysed in 0.5% Nonidet P-40, 20 mM HEPES pH 7.2, 100 mM NaCl, 2 mM dithiothreitol, lmM EDTA, 1.0 mM phenylmethylsulfonylfluoride, 1 μg/ml aprotinin and the nuclei pelleted. Lysates were normalized for protein content. […] Binding to GST-Jun efficiently isolates the two major forms of JNK (p45and p55) and under the conditions used JNK isolation was linear for 10-250 μg of cell lysate. The lysates were rotated at 4° C. for 1-3 h. Beads were washed twice in lysis buffer and then twice in PAN (10 mM PIPES, pH 7.0, 100 mM NaCl, 21 μg/ml aprotinin). Kinase reactions were carried out at 30° C. for 15 min in 20 mM Hepes pH 7.2, 20 mM β-glycerophosphate, 10 mMp-nitrophenyl phosphate, 10 mM MgCl2, 1 mM dithiothreitol, 50 μm sodium vanadate, 10 μCi γ^32P-ATP 4300 Ci/mmole. The kinase reaction was linear from 0-30 min.
# p42/p44 MAPK = assay: MAPK assay (EGFR662-681 peptide), L929 cells; format: cell-based, murine
# Description: MAPK Assay MAPK activity was measured exactly as described previously (Gardner, A. M., et al. (1994) Meth. Enzymol. 238:258-270) with the exception that MonoQ FPLC fractionation was replaced by step elution from a DEAE-Sephacel column using 0.5 M NaCl in loading buffer. The eluate was assayed in triplicate using the epidermal growth factor receptor 662-681 peptide (EGFR662-681) as a selective substrate for MAPK activity (Heasley, L. E., et al. (1994) American Journal of Physiology (Renal Fluid Electrolyte Physiol. 36) 267:F366-F373).
# B-Raf = assay: Raf activation assay (kinase-inactive MEK-1 phosphorylation), L929 cells; format: cell-based, murine
# Description: (§2) RafActivation Assay Cells were serum starved and challenged in the presence or absence of the appropriate cytokine or growth factors, as described above. Cells were lysed by scraping in ice cold RIPA buffer (50 mM Tris-HCl, pH 7.2, 150 mM NaCl, 0.1% SDS, 0.5% sodium deoxycholate, 1.0% Triton X-100, 10 mM sodium pyrophosphate, 25 mM β-glycerophosphate, 2 mM sodium vanadate, 2.1 µg/ml aprotinin) and the nuclei were pelletted. The supernatants were normalized for protein content and precleared with protein A Sepharose prior to immunoprecipitation with rabbit antiserum to the C terminus of C-Raf, rabbit anti-serum to A-Raf or rabbit antiserum to B-Raf (Santa Cruz Biotech., Santa Cruz, Calif.) and protein A Sepharose for 2-3 hr at 4° C. The beads were washed twice with ice cold RIPA and twice with PAN. A third of the immunoprecipitate was diluted with SDS sample buffer and used for immunoblot analysis. […] Wild-type recombinant MEK-1 was autophosphorylated in parallel as a marker. Reactions were terminated by the addition of 12.5 μl 5× SDS sample buffer, boiled, and subjected to SDS-PAGE and autoradiography.
# C-Raf = assay: as above; format: cell-based, murine
# Description: as §2
# [1] = system: Swiss 3T3 cells and REF52 cells; assay: Beauvericin-induced apoptosis (anti-tubulin and propidium iodide staining); format: cell-based; conditions: 50 μM, 6 hours, 37° C.
# Description: A first group of transfected Swiss 3T3 cells and REF52 cells were treated with 50 μM beauvericin for 6 hours at 37° C. Beauvericin is a compound known to induce apoptosis in mammalian cells. A second group of cells were treated with a control buffer lacking beauvericin. The treated cells were then fixed in parafornaldehyde and permeabilized with saponin using protocols standard in the art. The permeabilized cells were then labelled by incubating the cells with a fluorescein-labelled anti-tubulin antibody (1:500; obtained from GIBCO, Gaithersburg, Md.) to detect cytoplasmic shrinkage or 10 μM propidium iodide (obtained from Sigma, St. Louis, Mo.) to stain DNA to detect nuclear condensation. The labelled cells were then viewed by differential fluorescent imaging using a Nikon Diaphot fluorescent microscope.
# endogenous MEKK1 protein = assay: Cleavage of endogenous MEKK1 after genotoxic stress stimuli (immunoblot); format: cell-based, Human; conditions: HEK293 cells
# Description: 200-400 μg cell lysate protein was subjected to SDS-9% PAGE and transferred to nitrocellulose membranes. Blots were performed exactly as described (Widmann et al., 1995). To detect HA-tagged proteins, the mouse monoclonal antibody 12CA5 (Babco) was used as the primary antibody, followed by a rabbit anti-mouse antibody (Cappel). HRP-conjugated protein A at a 1/5000 dilution (Zymed) and ^125I-protein A at a 1/500 dilution (Dupont NEN) were then used for enhanced chemiluminescence (ECL) detection and for quantification using the phosphorimager. To detect MEKK1, 3 different ploclonal antisera were used as primary antibodies, followed by ECL detection using HRP-protein A (see above). These sera were generated by injecting rabbits with GST proteins fused with different portions of the MEKK1 protein.
# Several genotoxic stress stimuli were applied to HEK293 cells and their effect on the MEKK1 protein was assessed.
# Swiss 3T3 cells = assay: Quantitation of MEKKCOOH-induced cell death after nuclear microinjection; format: cell-based
# Description: Swiss 3T3 and REF52 cells were plated on acid-washed glass cover slips in Dulbecco's Modified Eagle's Medium (DMEM) and 10% bovine calf serum (BCS) or newborn calf serum (NCS). Cells were placed in DMEM/0.1% calf serum for overnight incubation prior to microinjection and used for injection at 50-70% confluence. Injections were performed with an Eppendorf automated microinjection system with needles pulled from glass capillaries on a vertical pipette puller (Kopf, Tujunga, Calif.). Cells were injected with pCMVβ-gal in the presence or absence of pCMV5MEKKCOOH or pCMV5BxBRaf at 20-100 ng/μl for each expression plasmid in 100 mM KC1, 5 mM NaPO4, pH 7.3. […] Similar results were obtained when cells were placed in 10% NCS after microinjection. Propidium iodide (5 pg/ml) was used to stain DNA. X-Gal reactions were performed for six hr.
# Seventeen hours after injection cells were fixed and stained for β-galactosidase activity with X-Gal. Injected cells attached to the coverslip were scored as positive for cell death when they were highly condensed, small round cells.
compound,measurement,setting,value
EGF: epidermal growth factor,persistence of MEKK1 activation,MEKK1; EGF 30 ng/ml timecourse,at least 30 minutes
same,MEKK1 activity,MEKK1,increased MEKK1 activity
same,time to peak Raf-B activity,Raf-B,3 to 5 min
same,activation of c-Raf-1,c-Raf-1,almost negligible
bFGF: recombinant human basic fibroblast growth factor (147aa),effect on TNFα-mediated cell death / apoptosis,L929 cells,effective at blocking TNFα-mediated cell death
same,cell number,L929 cells; in the absence of TNFα,did not measurably increase cell number
same,effect on JNK activity,JNK,little or no effect on JNK activity
same,effect on TNFα stimulation of JNK,JNK,did not alter the magnitude of JNK activation
same,concentrations giving maximal stimulation of MAPK activity,p42/p44 MAPK,0.25 to 0.5 ng/mL
same,MAPK activity,"p42/p44 MAPK; L929 cells, TNFα 1 ng/ml where stated",robust activation of MAPK
same,B-Raf activation,B-Raf,activation of both B-Raf and C-Raf
same,C-Raf activation,C-Raf,activation of both B-Raf and C-Raf
"COc1cccc(-c2cc(=O)c3ccccc3o2)c1N [PD #098059, reference compound]",effect on TNFα-mediated cell death / apoptosis,L929 cells,no effect on TNFα-mediated apoptosis
same,effect on the protective action of bFGF against TNFα-mediated cell death,L929 cells,inhibited the protective action of bFGF
same,effect on JNK activity,JNK,did not inhibit JNK kinase or the activation of JNK
same,effect on bFGF stimulation of MAPK activity,p42/p44 MAPK; L929 cells,inhibited bFGF stimulation of MAPK activity
beauvericin,apoptotic morphology,[1],cytoplasmic shrinkage (monitored by the anti-tubulin antibodies) and nuclear condensation
NGF: growth factor used at 100 ng/ml on PC12 cells,MEKK1 activity,MEKK1,slight increase in MEKK1 activity
same,activation of c-Raf-1,c-Raf-1,almost negligible
N.N.[Cl][Pt][Cl] [cisplatin],effect on full length MEKK1 protein,endogenous MEKK1 protein,induced the loss of full length MEKK1
same,full length MEKK1 remaining after treatment,endogenous MEKK1 protein,no full length MEKK1 protein remaining
"N17 Ras: HA-tagged inhibitory N17 Ras, IPTG-inducible in L929 cells [reference compound]",effect on TNFα-mediated cell death / apoptosis,L929 cells,did not affect TNFα induced apoptosis
same,effect on the protective action of bFGF against TNFα-mediated cell death,L929 cells,markedly inhibit the ability of bFGF to protect cells
same,effect on TNFα stimulation of JNK,JNK,no effect on TNF stimulation of JNK
same,effect on bFGF stimulation of MAPK activity,p42/p44 MAPK; L929 cells,significantly blunted bFGF stimulation of MAPK
"β-gal: expression plasmid encoding β-galactosidase, injected alone as control",injected cells with an altered morphology,Swiss 3T3 cells; 48-72 hours post-injection,< 1%
same,Condensed Cells (number),"Swiss 3T3 cells; Swiss 3T3 cells, 100 ng/μl plasmids, seventeen hours after injection, highly condensed, small round cells",4
same,Condensed Cells (%),"Swiss 3T3 cells; Swiss 3T3 cells, 100 ng/μl plasmids, seventeen hours after injection, percent of cells injected",1%
